The values below come from patent EP0168350B1, “Certain ring-fused pyrazolo [3,4-d]-pyridin-3-one derivatives” (CIBA-GEIGY AG, priority 1984, dated 1986).

One experiment deals with benzodiazepine receptor. The experiment is described as follows: in vitro benzodiazepine receptor binding assay (displacement of tritiated flunitrazepam). The settings on record: concentration inhibiting specific binding of 0.5 nM tritiated flunitrazepam by 50 %; synaptosomal membranes from rat fore-brain, pH 7.5. Here is the method: The benzodiazepine receptor binding properties indicate of the nervous system regulatory activity of said new compounds are determined in the receptor binding assay in vitro, e.g. similarly to that in Nature 266, 732 ( 977) or Proc. Nat. Acad. Sci. USA 74, 3805 (1977). When tritiated flunitrazepam is used, the interaction of other drugs with said receptor can be readily assessed thus; Synaptosnal membranes from rat fore-brain are incubated at 0-5 for 30 minutes with 0.5 nM tritiated flunitrazepam and various concentrations of the test substance in a buffer medium maintained at pH 7.5. Solutions of the various concentrations of test substance are prepared by dilution of a […] stock solution in dimethylacetamide-ethanol (1:10) with 50 mM pH 7.5 Tris-HCI buffer. The membranes, containing the receptors with various amounts of tritiated flunitrazepam, are filtered onto glass fiber filters, which are then analyzed in a liquid scintillation counter. The concentration of the compounds of this invention, required to inhibit the specific binding of 0.5 nM of tritiated flunitrazepam by 50 %, the ICso, is determined graphically.

The test system of a further experiment is male Wistar rats. In words: Cook-Davidson conflict procedure for antianxiety effects. The format is in vivo, rat. The following applies: dose of about 10 mg/kg p.o. From the text:
Anxiolytic effects are observed, for example, according to the Cook-Davidson conflict procedure, using male Wistar rats which are maintained at 80 % of normal body weight by dietary-, but not water-restriction. They are trained to press a lever within a conditioning chamber, also containing a liquid dipper, a house light, a speaker and a grid-floor. Both lever and grid are connected to an electrical shock source and the chamber is situated in a sound-attenuated room in which a white noise-source is activated during testing, in order to mask any extraneous auditory cues. Each session of 47 minutes duration consists of two alternating schedules. The first is a Variable Interval (VI) schedule of 30 seconds, lasting for 5 minutes, during which a sweetened, condensed milk reinforcement is delivered following the first lever-press after an average of 30 seconds have elapsed, and a drug-induced decrement of this performance is taken as an indication of a neurological deficit. Immediately following the VI-schedule both a 1000 Hz tone and a light-cue are activated, indicating the commencement of the second Fixed Ration (FR) schedule, lasting for 2 minutes, wherein the milk reinforcement is delivered concomitant with an electric foot shock immediately following the tenth response, thereby establishing a conflict situation. The intensity of said shock ranges between 2.0 and 3.6 mA, varying with each animal, in order to adjust them to about 25-100 responses during this schedule over the entire session. A drug-induced enhancement of performance during the FR-schedule is taken as indication of antianxiety effects. This increased performance is measured by the increased number of electric shocks taken during six FR sessions lasting 2 minutes each.

Counter-ions that a name gives are not always drawn.

Regarding `O=c1c2c[nH]c3c(c-2nn1-c1ccc(Cl)cc1)CCC3` [Example 7a, 2-p-chlorophenyl-2,3,5,6,7,8-hexahydrocyclopenta[b]pyrazolo[3,4-d]pyridin-3-one], the IC50 (in general, the midpoint of a concentration-inhibition curve) at benzodiazepine receptor was about 0.5 nM.

Regarding `CC1CCc2[nH]cc3c(=O)n(-c4ccc(Cl)cc4)nc-3c2C1.Cl` (stereo not shown) [Example 8e, 2-p-chlorophenyl-2,3,6,7,8,9-hexahydro-8-methylpyrazolo[4,3-c]-quinolin-3(5H)-one hydrochloride], the IC50 on benzodiazepine receptor is about 1 nM. The “active in the Cook-Davidson test for antianxiety effects” value (“active in the Cook-Davidson test” for short) with male Wistar rats is reported as “active”. In turn, `Cl.O=c1c2c[nH]c3c(c-2nn1-c1ccc(Cl)cc1)CCCC3` [Example 8a, 2-p-chlorophenyl-2,3,6,7,8,9-hexahydropyrazolo[4,3-c]quinolin-3(5H)-one hydrochloride] yielded an IC50 on benzodiazepine receptor of about 3.5 nM. Moreover, the “active in the Cook-Davidson test” value in the experiment with male Wistar rats is recorded as “active”. `O=c1c2c[nH]c3c(c-2nn1-c1ccc(Cl)cc1)COCC3` [Example 4a, 2-p-chlorophenyl-2,3,5,6,7,9-hexahydropyrano[4,3-b]pyrazolo[3,4-d]pyridin-3-one] had an IC50 at benzodiazepine receptor of about 0.9 nM. Further, the “active in the Cook-Davidson test” value in the experiment on male Wistar rats is recorded as “active”. `COc1ccc(-n2nc3c4c([nH]cc-3c2=O)CCCC4)cc1` [Example 12c, 2-(4-methoxyphenyl)-2,3,6,7,8,9-hexahydropyrazolo[4,3-c]quinolin-3(5H)-one] returned a half-inhibitory concentration (IC50) at benzodiazepine receptor of about 0.6 nM. Turning to `O=c1c2c[nH]c3c(c-2nn1-c1ccc(Cl)cc1)CSCC3` [Example 3a, 2-p-chlorophenyl-2,3,5,6,7,9-hexahydrothiopyrano[4,3-b]pyrazolo[3,4-d]pyridine-3-one], the IC50 on benzodiazepine receptor is about 0.35 nM. In the case of `O=c1c2c[nH]c3c(c-2nn1-c1ccccc1)CCC3` [Example 7b, 2-phenyl-2,3,5,6,7,8-hexahydrocyclopenta[b]pyrazolo[3,4-d]pyridin-3-one], the half-inhibitory concentration (IC50) at benzodiazepine receptor is about 1.5 nM. The same measure, in the same setting: in the case of `O=C(Nc1ccccn1)c1cnc2c(c1O)CSCC2` [5H-7,8-dihydro-4-hydroxy-3-(N-2-pyridylcarbamoyl)thiopyrano[4,3-b]pyridine] it was about 8 nM. In turn, `O=c1c2c[nH]c3c(c-2nn1-c1ccc(Cl)cc1)CCCCC3` [Example 9a, 2-p-chlorophenyl-2,3,5,6,7,8,9,10-ocathydrocyclohepta[b]pyrazolo[3,4-d]pyridin-3-one hydrochloride] came in with an IC50 at benzodiazepine receptor of about 0.8 nM. Also, the “active in the Cook-Davidson test” value in the experiment with male Wistar rats is recorded as “active”.
